Results on 8 compounds are retold here after US5104800A, “One-step cephalosporin C amidase enzyme” (Merck & Co., Inc., priority 1989, dated 1992).

Experiment [1] has as its system cephalosporin C amidase from Bacillus megaterium (alpha(2) beta(2) oligomer, 722 amino acid primary translation product). Description: Kinetic characterisation of purified cephalosporin C amidase (Km, turnover). The experiment is classed as biochemical. The text has this: (§1) The amino acid sequence of the cephalosporin C amidase enzyme of the present invention, recited further above, was deduced by DNA sequence analysis of the gene coding for the enzyme, and the accuracy of the results have been verified by sequencing three independent isolates from three different strains of Bacillus megaterium. However, since 100% accuracy cannot be totally assured, it has been considered desirable to also identify the cephalosporin C amidase enzyme of the present invention in terms of a number of physical and chemical attributes which it uniquely has. Purification of the enzyme for which such data has been derived is explained in more detail further below. Those data are set out in the following table:
(§2) Assay of activity: incubate 180 μl enzyme with 20 μl 20 mg/ml cephalosporin C; after 3 hours at 37° determine 7-ACA by HPLC assay
Cultures of B. megaterium were grown as described. The cells were removed from the broth by centrifugation. The broth was brought to 55% saturation with respect to ammonium sulfate and the precipitate removed by centrifugation. The supernatant was then brought to 75% saturated with respect to ammonium sulfate and the cephalosporin C amidase containing precipitate pelleted by centrifugation. […]
2. […] Formation of 7-ACA was monitored by HPLC.

The test system is the same in experiment [2]. Briefly: Inhibitors of purified cephalosporin C amidase. The experiment is classed as biochemical. The note with it: for inhibition of the enzyme (in words): concentration not given; for inhibition at 10 mM (potent inhibitors): inhibitor at 10 mM.
Description: as §1, §2
Cultures of B. megaterium were grown as described. The cells were removed from the broth by centrifugation. The broth was brought to 55% saturation with respect to ammonium sulfate and the precipitate removed by centrifugation. The supernatant was then brought to 75% saturated with respect to ammonium sulfate and the cephalosporin C amidase containing precipitate pelleted by centrifugation. This pellet was resuspended in 1/10 of the original culture volume of 15% (w/v) ammonium sulfate, 50 mM sodium phosphate, 5% (w/v) glycerol pH 7.5.
The 10× concentrated enzyme was brought from 15% to 18% w/v ammonium sulfate by addition of saturated ammonium sulfate and filtered through a 0.4 micron filter. Four mls of this was injected onto a Synchrome Synchropak propyl column (25 cm×[…]) which was previously equilibrated with 18% (w/v) ammonium sulfate, 50 mM potassium phosphate pH 7.0. The flow rate was 1 ml/min. For ten minutes after injection the mobile phase composition remained unchanged. From 10 to 40 minutes the mobile phase was changed in a linear gradient to 0% ammonium sulfate, 50 mM sodium phosphate pH 7. From 40-50 minutes the mobile phase composition remained unchanged. Two fractions/min. were collected and assayed for cephalosporin C amidase activity. The activity eluted from 22 to 25 minutes.
The five fractions with the most activity were pooled and concentrated by ultrafiltration in a Centricon 30 (Amicon) to about 50 μl. This concentrated enzyme was injected onto a Zorbox GF 250 (DuPont) column ([…]). The column had been equilibrated and was run in 10% (w/v) ammonium sulfate, 50 mM potassium phosphate pH 7.0 at 1 ml/min. Five fractions/min. were collected. All of the cephalosporin C amidase activity was recovered in two fractions at approximately 9 minutes after injection.
1. The substrate stock solution was prepared by dissolving 20 mg of cephalosporin C in 1 ml of water.
2. Cephalosporin C stock solution (20 μl) was added to the recovered enzyme (180 μl) and the mixture was incubated at 37° C. for 3 hours. Formation of 7-ACA was monitored by HPLC.

Regarding `CC(=O)OCC1=C(C(=O)O)N2C(=O)[C@@H](NC(=O)CCC[C@@H](N)C(=O)O)[C@H]2SC1` [cephalosporin C], the Km in experiment [1] (substrate cephalosporin C) was found to be 1300 µM.

Take `CC1(C)S[C@@H]2[C@H](N)C(=O)N2[C@H]1C(=O)O` [6-APA]: the “inhibition of the enzyme (in words)” value in experiment [2] is recorded as “NOT inhibited”.

Take `C[C@H](N)C(=O)O` [L-alanine]: the “inhibition at 10 mM (potent inhibitors)” value in experiment [2] is greater than 90%.

On to `C[C@@H](N)C(=O)O` [D-alanine], for which the “inhibition at 10 mM (potent inhibitors)” value in experiment [2] is recorded as greater than 90%.

On to `O=C(O)CCCC(=O)Nc1ccc(C(=O)O)cc1` [glutaryl-4-aminobenzoate, reference compound], for which the “turnover number, fold higher than with cephalosporin C” value in experiment [1] (substrate glutaryl-4-aminobenzoate (GAB) compared with cephalosporin C) is on record as 20 fold.

As for `NCC(=O)O` [Glycine], in experiment [2], the “inhibition at 10 mM (potent inhibitors)” value was greater than 90%.

Consider `NC(=O)CC[C@H](N)C(=O)O` [Glutamine], for which the “inhibition at 10 mM (potent inhibitors)” value in experiment [2] was greater than 90%.

As to `CC1(C)S[C@@H]2[C@H](NC(=O)Cc3ccccc3)C(=O)N2[C@H]1C(=O)O` [PenG, penicillin G, reference compound], the “inhibition of the enzyme (in words)” value in experiment [2] is recorded as “NOT inhibited”.
